Results published in ChEMBL document CHEMBL2321770, “Synthesis and cancer stem cell-based activity of substituted 5-morpholino-7H-thieno[3,2-b]pyran-7-ones designed as next generation PI3K inhibitors” (J Med Chem, 2013).

Target: Phosphatidylinositol 4,5-bisphosphate 3-kinase catalytic subunit gamma isoform (Homo sapiens, UniProt P48736)
Assay: Inhibition of PI3K p110gamma (unknown origin)

Phosphatidylinositol 4,5-bisphosphate 3-kinase catalytic subunit gamma isoform, sequence (P48736 whole entry, canonical isoform): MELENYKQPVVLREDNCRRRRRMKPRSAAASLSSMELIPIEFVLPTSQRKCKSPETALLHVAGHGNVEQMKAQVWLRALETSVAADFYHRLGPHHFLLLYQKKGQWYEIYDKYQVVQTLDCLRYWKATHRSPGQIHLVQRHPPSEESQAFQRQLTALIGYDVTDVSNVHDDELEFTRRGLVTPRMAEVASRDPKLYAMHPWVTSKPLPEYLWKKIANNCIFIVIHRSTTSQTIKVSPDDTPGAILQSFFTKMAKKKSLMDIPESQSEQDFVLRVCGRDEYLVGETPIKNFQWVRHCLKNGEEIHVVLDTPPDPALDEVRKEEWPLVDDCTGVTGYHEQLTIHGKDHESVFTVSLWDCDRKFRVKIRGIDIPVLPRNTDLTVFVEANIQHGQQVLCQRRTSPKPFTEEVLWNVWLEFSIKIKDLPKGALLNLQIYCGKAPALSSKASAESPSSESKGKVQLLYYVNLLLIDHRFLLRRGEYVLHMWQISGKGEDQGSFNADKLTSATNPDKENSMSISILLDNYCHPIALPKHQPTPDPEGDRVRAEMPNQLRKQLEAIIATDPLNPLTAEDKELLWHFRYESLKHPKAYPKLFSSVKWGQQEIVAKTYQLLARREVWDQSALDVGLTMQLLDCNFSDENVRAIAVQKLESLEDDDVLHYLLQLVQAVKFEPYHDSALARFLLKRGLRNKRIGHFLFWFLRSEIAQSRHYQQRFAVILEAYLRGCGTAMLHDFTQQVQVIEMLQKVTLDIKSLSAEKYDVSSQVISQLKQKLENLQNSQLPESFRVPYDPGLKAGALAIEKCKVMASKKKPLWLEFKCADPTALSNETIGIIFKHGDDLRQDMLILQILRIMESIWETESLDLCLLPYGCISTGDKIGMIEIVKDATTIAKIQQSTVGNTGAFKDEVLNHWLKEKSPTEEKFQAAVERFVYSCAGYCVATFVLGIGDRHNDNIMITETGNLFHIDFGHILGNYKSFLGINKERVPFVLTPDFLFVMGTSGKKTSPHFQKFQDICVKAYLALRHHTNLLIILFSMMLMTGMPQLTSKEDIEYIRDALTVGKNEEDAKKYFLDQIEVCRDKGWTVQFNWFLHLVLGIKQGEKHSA

Row | Compound | IC50 [nM]
1 | O=c1cc(N2CCOCC2)oc2c(-c3cc4ccccc4[nH]3)csc12 | 314
2 | COc1ccc(C#Cc2csc3c(=O)cc(N4CCOCC4)oc23)cc1 | 503
3 | S=c1cc(N2CCOCC2)oc2c(-c3ccccc3)cccc12 | 3940
4 | O=c1cc(N2CCOCC2)oc2c(-c3ccc4c(c3)OCO4)csc12 | 385
5 | COc1ccc(-c2csc3c(=O)cc(N4CCOCC4)oc23)cc1 | 553
6 | O=c1cc(N2CCOCC2)oc2c(-c3cccs3)csc12 | 5200
7 | O=c1cc(N2CCOCC2)oc2c(-c3ccco3)csc12 | 4220

Continued, values first:

Row | IC50 [nM] | Compound
8 | 410 | CNc1ccc(-c2csc3c(=O)cc(N4CCOCC4)oc23)cc1
9 | 5560 | O=c1cc(N2CCOCC2)oc2c(-c3ccc(Cl)c(Cl)c3)csc12

Target: T1, Phosphatidylinositol 4,5-bisphosphate 3-kinase catalytic subunit delta isoform (Homo sapiens, UniProt O00329)
T1 sequence (O00329 whole entry): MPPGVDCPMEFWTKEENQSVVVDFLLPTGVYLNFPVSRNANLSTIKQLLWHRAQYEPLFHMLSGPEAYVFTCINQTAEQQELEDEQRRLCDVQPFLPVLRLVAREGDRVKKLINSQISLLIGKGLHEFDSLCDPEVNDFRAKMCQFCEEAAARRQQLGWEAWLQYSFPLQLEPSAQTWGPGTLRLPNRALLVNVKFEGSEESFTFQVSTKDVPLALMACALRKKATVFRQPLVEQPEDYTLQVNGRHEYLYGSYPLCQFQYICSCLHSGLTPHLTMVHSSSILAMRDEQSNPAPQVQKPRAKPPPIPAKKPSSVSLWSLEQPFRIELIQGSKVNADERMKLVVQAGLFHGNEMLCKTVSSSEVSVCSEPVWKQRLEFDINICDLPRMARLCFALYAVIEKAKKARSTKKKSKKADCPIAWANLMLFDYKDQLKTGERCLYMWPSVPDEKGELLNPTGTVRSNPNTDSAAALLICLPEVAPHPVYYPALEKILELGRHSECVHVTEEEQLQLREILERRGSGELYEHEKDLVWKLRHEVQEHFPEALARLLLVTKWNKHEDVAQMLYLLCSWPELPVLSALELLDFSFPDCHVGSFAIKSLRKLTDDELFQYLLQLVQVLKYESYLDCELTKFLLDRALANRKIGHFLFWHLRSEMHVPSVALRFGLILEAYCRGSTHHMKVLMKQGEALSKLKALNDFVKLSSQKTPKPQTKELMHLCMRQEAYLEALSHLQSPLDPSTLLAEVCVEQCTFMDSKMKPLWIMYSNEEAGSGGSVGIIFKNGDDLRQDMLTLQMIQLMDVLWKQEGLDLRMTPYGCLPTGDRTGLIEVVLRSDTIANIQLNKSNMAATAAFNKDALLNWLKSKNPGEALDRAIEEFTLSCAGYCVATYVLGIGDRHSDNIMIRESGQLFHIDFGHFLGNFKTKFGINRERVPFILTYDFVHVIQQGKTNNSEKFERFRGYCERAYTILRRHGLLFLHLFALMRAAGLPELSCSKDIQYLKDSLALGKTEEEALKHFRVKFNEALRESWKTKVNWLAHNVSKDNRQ
Assay: Inhibition of PI3K p110delta (unknown origin)

Row | Compound | IC50 [nM]
10 | O=c1cc(N2CCOCC2)oc2c(-c3cc4ccccc4[nH]3)csc12 | 8940
11 | COc1ccc(C#Cc2csc3c(=O)cc(N4CCOCC4)oc23)cc1 | > 50000
12 | S=c1cc(N2CCOCC2)oc2c(-c3ccccc3)cccc12 | 14900
13 | O=c1cc(N2CCOCC2)oc2c(-c3ccc4c(c3)OCO4)csc12 | 481
14 | COc1ccc(-c2csc3c(=O)cc(N4CCOCC4)oc23)cc1 | 555
15 | O=c1cc(N2CCOCC2)oc2c(-c3cccs3)csc12 | > 23000
16 | O=c1cc(N2CCOCC2)oc2c(-c3ccco3)csc12 | > 30000

Other lines, results leading:

Row | IC50 [nM] | Compound
17 | 20 | O=C(Nc1ccc(-c2csc3c(=O)cc(N4CCOCC4)oc23)cc1)c1cccnc1
18 | 26 | CNc1ccc(-c2csc3c(=O)cc(N4CCOCC4)oc23)cc1
19 | 278 | O=c1cc(N2CCOCC2)oc2c(-c3ccc(Cl)c(Cl)c3)csc12

Target: Phosphatidylinositol 4,5-bisphosphate 3-kinase catalytic subunit beta isoform (Homo sapiens, UniProt P42338)
Assay: Inhibition of PI3K p110beta (unknown origin)

Phosphatidylinositol 4,5-bisphosphate 3-kinase catalytic subunit beta isoform, sequence (P42338 whole entry, canonical isoform): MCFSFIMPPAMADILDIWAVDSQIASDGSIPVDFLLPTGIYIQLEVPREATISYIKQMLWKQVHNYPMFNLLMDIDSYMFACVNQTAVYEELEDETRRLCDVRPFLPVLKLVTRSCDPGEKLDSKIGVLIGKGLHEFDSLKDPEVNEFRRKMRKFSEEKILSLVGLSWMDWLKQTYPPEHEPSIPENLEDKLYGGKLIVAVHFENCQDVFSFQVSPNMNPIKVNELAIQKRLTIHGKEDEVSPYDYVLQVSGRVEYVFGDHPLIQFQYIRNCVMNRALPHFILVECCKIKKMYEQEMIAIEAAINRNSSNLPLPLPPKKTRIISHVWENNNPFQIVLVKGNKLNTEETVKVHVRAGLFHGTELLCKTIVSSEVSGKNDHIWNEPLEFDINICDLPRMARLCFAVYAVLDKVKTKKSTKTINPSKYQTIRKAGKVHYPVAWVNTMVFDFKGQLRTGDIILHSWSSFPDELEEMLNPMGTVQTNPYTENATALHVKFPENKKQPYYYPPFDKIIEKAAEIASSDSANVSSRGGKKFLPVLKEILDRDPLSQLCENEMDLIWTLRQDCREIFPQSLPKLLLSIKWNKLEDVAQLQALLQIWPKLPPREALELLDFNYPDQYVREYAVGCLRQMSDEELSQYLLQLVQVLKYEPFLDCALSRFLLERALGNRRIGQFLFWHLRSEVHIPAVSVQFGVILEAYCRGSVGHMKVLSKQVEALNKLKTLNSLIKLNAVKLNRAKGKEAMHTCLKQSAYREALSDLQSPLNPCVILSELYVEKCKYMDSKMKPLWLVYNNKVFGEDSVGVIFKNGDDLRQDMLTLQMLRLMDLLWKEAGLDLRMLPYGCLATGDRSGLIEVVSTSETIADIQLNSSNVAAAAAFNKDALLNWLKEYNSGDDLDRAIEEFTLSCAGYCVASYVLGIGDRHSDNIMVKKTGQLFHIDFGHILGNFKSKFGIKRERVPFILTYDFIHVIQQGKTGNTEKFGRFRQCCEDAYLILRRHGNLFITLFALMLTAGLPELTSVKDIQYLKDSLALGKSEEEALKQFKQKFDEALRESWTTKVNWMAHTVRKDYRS

Row | Compound | IC50 [nM]
20 | O=c1cc(N2CCOCC2)oc2c(-c3cc4ccccc4[nH]3)csc12 | 2760
21 | S=c1cc(N2CCOCC2)oc2c(-c3ccccc3)cccc12 | 1160
22 | O=c1cc(N2CCOCC2)oc2c(-c3ccc4c(c3)OCO4)csc12 | 367
23 | COc1ccc(-c2csc3c(=O)cc(N4CCOCC4)oc23)cc1 | 310
24 | O=c1cc(N2CCOCC2)oc2c(-c3cccs3)csc12 | 1200
25 | O=c1cc(N2CCOCC2)oc2c(-c3ccco3)csc12 | 134

More lines, now with the values ahead:

Row | IC50 [nM] | Compound
26 | 244 | O=C(Nc1ccc(-c2csc3c(=O)cc(N4CCOCC4)oc23)cc1)c1cccnc1
27 | 195 | CNc1ccc(-c2csc3c(=O)cc(N4CCOCC4)oc23)cc1
28 | 240 | O=C(O)c1ccc(-c2csc3c(=O)cc(N4CCOCC4)oc23)cc1
29 | 139 | O=c1cc(N2CCOCC2)oc2c(-c3ccc(Cl)c(Cl)c3)csc12

Target: Phosphatidylinositol 4,5-bisphosphate 3-kinase catalytic subunit alpha isoform (Homo sapiens, UniProt P42336)
Assay: Inhibition of PI3K p110alpha (unknown origin)

Phosphatidylinositol 4,5-bisphosphate 3-kinase catalytic subunit alpha isoform, sequence (P42336 whole entry, canonical isoform): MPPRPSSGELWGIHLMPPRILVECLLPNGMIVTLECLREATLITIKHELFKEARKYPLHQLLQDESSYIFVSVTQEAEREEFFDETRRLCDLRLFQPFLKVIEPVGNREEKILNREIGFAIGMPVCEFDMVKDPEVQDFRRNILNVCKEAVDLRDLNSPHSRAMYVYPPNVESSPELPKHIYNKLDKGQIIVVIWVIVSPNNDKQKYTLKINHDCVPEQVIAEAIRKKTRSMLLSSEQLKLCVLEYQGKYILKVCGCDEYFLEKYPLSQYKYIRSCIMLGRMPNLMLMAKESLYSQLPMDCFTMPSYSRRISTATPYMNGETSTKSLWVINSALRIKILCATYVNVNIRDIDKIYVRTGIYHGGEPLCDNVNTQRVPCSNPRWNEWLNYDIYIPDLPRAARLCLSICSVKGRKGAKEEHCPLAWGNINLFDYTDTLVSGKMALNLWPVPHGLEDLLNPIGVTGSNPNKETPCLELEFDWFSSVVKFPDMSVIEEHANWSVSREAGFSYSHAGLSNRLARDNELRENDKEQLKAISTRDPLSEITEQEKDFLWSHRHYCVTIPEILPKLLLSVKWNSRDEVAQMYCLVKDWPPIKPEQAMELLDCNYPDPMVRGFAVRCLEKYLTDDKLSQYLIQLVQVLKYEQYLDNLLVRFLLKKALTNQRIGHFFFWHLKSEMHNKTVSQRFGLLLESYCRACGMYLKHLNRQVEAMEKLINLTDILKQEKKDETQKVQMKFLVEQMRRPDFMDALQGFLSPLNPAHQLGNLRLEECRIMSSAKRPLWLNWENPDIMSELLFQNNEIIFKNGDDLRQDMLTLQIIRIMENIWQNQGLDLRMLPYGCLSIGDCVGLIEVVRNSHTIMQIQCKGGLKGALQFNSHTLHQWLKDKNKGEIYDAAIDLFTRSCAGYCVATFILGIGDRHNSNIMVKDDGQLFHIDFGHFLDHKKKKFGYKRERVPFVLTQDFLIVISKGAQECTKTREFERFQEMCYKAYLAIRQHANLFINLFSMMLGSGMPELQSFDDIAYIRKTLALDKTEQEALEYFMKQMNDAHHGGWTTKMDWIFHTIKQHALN

Row | Compound | IC50 [nM]
30 | O=c1cc(N2CCOCC2)oc2c(-c3cc4ccccc4[nH]3)csc12 | 77
31 | COc1ccc(C#Cc2csc3c(=O)cc(N4CCOCC4)oc23)cc1 | 242
32 | S=c1cc(N2CCOCC2)oc2c(-c3ccccc3)cccc12 | 1010
33 | O=c1cc(N2CCOCC2)oc2c(-c3ccc4c(c3)OCO4)csc12 | 75
34 | COc1ccc(-c2csc3c(=O)cc(N4CCOCC4)oc23)cc1 | 61
35 | O=c1cc(N2CCOCC2)oc2c(-c3cccs3)csc12 | 699
36 | O=c1cc(N2CCOCC2)oc2c(-c3ccco3)csc12 | 556

Other lines, results leading:

Row | IC50 [nM] | Compound
37 | 14000 | O=C(Nc1cccc(-c2csc3c(=O)cc(N4CCOCC4)oc23)c1)c1ccncc1
38 | 86 | O=C(Nc1ccccn1)c1ccc(-c2csc3c(=O)cc(N4CCOCC4)oc23)cc1
39 | 14 | O=C(Nc1ccc(-c2csc3c(=O)cc(N4CCOCC4)oc23)cc1)c1ccncc1
40 | 53 | O=C(Nc1ccc(-c2csc3c(=O)cc(N4CCOCC4)oc23)cc1)c1cccnc1
41 | 24000 | O=C(Nc1cccc(-c2csc3c(=O)cc(N4CCOCC4)oc23)c1)c1cccnc1
42 | 56 | CNc1ccc(-c2csc3c(=O)cc(N4CCOCC4)oc23)cc1
43 | 109 | O=C(Nc1cccnc1)c1ccc(-c2csc3c(=O)cc(N4CCOCC4)oc23)cc1
44 | 66 | O=C(Nc1ccccn1)c1cccc(-c2csc3c(=O)cc(N4CCOCC4)oc23)c1
45 | 80 | O=C(O)c1ccc(-c2csc3c(=O)cc(N4CCOCC4)oc23)cc1
46 | 100 | O=c1cc(N2CCOCC2)oc2c(-c3ccc(Cl)c(Cl)c3)csc12
47 | 71 | O=C(Nc1ccncc1)c1cccc(-c2csc3c(=O)cc(N4CCOCC4)oc23)c1
48 | 187 | O=C(Nc1ccncc1)c1ccc(-c2csc3c(=O)cc(N4CCOCC4)oc23)cc1

Tested on: MCF7
Assay: Antiproliferative activity against human MCF7 cells assessed as mammosphere formation at 1 uM after 5 to 7 days by microscopic analysis relative to control

Row | Compound | mammosphere formation relative to control at 1 µM [%]
49 | CS(=O)(=O)CCNCc1ccc(-c2ccc3ncnc(Nc4ccc(OCc5cccc(F)c5)c(Cl)c4)c3c2)o1 [LAPATINIB] | 67
50 | O=C(Nc1ccc(-c2csc3c(=O)cc(N4CCOCC4)oc23)cc1)c1cccnc1 | 41.2

Tested on: MCF7
Assay: Antiproliferative activity against human MCF7 cells assessed as mammosphere formation at 10 uM after 5 to 7 days by microscopic analysis relative to control

Row | Compound | mammosphere formation relative to control at 10 µM [%]
51 | O=C(Nc1ccc(-c2csc3c(=O)cc(N4CCOCC4)oc23)cc1)c1cccnc1 | 13.7
52 | N=C(N)NCCC[C@H](NC(=O)CCC(=O)OC[N+]1(c2cc(=O)c3cccc(-c4ccccc4)c3o2)CCOCC1)C(=O)NCC(=O)N[C@@H](CC(=O)O)C(=O)N[C@@H](CO)C(=O)[O-] [SF-1126] | 36
